The nature of experiment [1]: Ability to promote differentiation of C3H10T1/2 stem cells to adipocytes using lipogenesis assay mediated through activation of Peroxisome proliferator activated receptor gamma.
Experiment [2] deals with T1, Peroxisome proliferator-activated receptor gamma (Homo sapiens, UniProt P37231).
T1 sequence (P37231 whole entry): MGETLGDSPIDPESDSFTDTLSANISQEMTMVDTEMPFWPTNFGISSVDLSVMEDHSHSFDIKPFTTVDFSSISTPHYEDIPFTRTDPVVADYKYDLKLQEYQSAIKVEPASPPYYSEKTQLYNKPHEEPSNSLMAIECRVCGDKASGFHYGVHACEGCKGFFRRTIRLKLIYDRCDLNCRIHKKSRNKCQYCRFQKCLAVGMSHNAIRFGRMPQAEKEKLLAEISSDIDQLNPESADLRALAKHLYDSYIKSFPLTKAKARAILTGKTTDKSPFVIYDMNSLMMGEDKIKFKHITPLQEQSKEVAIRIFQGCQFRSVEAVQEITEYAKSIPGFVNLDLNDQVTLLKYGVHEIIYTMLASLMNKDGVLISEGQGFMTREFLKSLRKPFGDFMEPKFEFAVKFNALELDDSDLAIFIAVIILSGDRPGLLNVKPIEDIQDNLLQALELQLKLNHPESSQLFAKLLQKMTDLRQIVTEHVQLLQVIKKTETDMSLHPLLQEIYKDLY
The experiment can be described thus: Ability to promote differentiation of C3H10T1/2 stem cells to adipocytes using lipogenesis assay mediated through activation of Peroxisome proliferator activated receptor gamma.

In general, EC50 refers to the concentration needed to bring the measured effect to its halfway point. The low end stands for greater potency, the high end for weaker potency. The compound `CN(CCOc1ccc(CC(Nc2ccccc2Oc2ccccc2)C(=O)O)cc1)c1nc2ccccc2o1` (configuration not stated) gave an EC50 in experiment [1] of 0.468 µM.

The compound `CN(CCOc1ccc(CC(Nc2ccccc2C(O)c2ccccc2)C(=O)O)cc1)c1ccccn1` (configuration not stated) showed a half-maximal effective concentration (EC50) in experiment [1] of 1.32 µM.

In turn, `CC1(COc2ccc(C[C@H](Nc3ccccc3C(=O)c3ccccc3)C(=O)O)cc2)CCCCC1` came in with an EC50 in experiment [1] of 1.15 µM. This EC50 and that of the compound before are within 1.5-fold of each other.

Regarding `Cc1c(C)c2c(c(C)c1O)CCC(C)(COc1ccc(C[C@H](Nc3ccccc3C(=O)c3ccccc3)C(=O)O)cc1)O2` (some centres not stated), a half-maximal response in experiment [1] (EC50) required 0.363 µM.

The compound `CN(CCOc1ccc(C[C@H](Nc2ccccc2C(=O)c2ccccc2)C(=O)O)cc1)c1nc2ccccc2o1` registered a 50% effective concentration (EC50) in experiment [1] of 0.0044 µM.

As to `CN(CCOc1ccc(CC(Nc2cccc3c2C(=O)c2ccccc2-3)C(=O)O)cc1)c1nc2ccccc2o1` (configuration not stated), the midpoint of the response in experiment [1], the EC50, lay at 0.575 µM. This EC50 lies about 130-fold higher than the previous one.

On to `CN(CCOc1ccc(CC(Nc2ccccc2C(=O)Cc2ccccc2)C(=O)O)cc1)c1nc2ccccc2o1` (configuration not stated), for which the EC50 in experiment [1] worked out at 0.047 µM. Against the preceding compound, the EC50 is about 12-fold lower.

In turn, `CN(CCOc1ccc(CC(Nc2ccccc2C(N=N)c2ccccc2)C(=O)O)cc1)c1ccccn1` (configuration not stated) yielded an EC50 in experiment [2] of 1.23 µM.

With `CCc1ccc(CCOc2ccc(C[C@H](Nc3ccccc3C(=O)c3ccccc3)C(=O)O)cc2)nc1`, the EC50 in experiment [1] was 0.501 µM.

The compound `O=C(c1ccccc1)c1ccccc1N[C@@H](Cc1ccc(OCc2ccccc2)cc1)C(=O)O` gave an EC50 in experiment [1] of 1.51 µM.

`CN(CCOc1ccc(CC(Oc2ccccc2C(=O)c2ccccc2)C(=O)O)cc1)c1nc2ccccc2o1` (configuration not stated): the concentration giving a half-maximal response (EC50) in experiment [1] was found to be 1.15 µM.

`CN(CCOc1ccc(CC(Nc2ccccc2S(=O)(=O)c2ccccc2)C(=O)O)cc1)c1nc2ccccc2o1` (configuration not stated) had an EC50 in experiment [1] of 2.19 µM. Compared with the last compound, the EC50 is about 1.9-fold higher.
